Experimental data from US20250059165A1, “PIPERIDINYLPYRIDINYLCARBONITRILE DERIVATIVES AS INHIBITORS OF GLUTAMINYL-PEPTIDE CYCLOTRANSFERASE AND GLUTAMINYL-PEPTIDE CYCLOTRANSFERASE LIKE PROTEIN” (Boehringer Ingelheim International GmbH, priority 2023, published 2025).
pIC50: −log10 of the molar value.

Tests used:
[1] = system: SIRPα signalling induced by Raji cells; test: Assay B: SIRPα signalling assay using Raji cells; assay type: cell-based; settings: Homo sapiens, 48 h compound incubation, Jurkat PathHunter SIRPαV1 reporter cells, read-out: Inhibition of SIRPα signalling induced by Raji cells: IC50
Experimental: (§1) Two cell types are independently used: the Raji cell line (lymphoblast-like human cell line derived from B lymphocytes from a Burkitt's lymphoma patient in 1963) and A549 cells (adenocarcinomic human alveolar basal epithelial cells).
(§2) Test compounds were dissolved in 100% DMSO and serially diluted into a white 384-well microtiter cell culture plate (PerkinElmer #60076780 in case of Raji assay; PDL-coated plates Greiner #781945 in case of A549 assay). 5000 Raji cells (ATCC #CC86) or 5000 A549 cells (ATCC #CCL-185) in Assay Complete Cell Plating reagent 30 (DiscoverX 93-0563R30B) were added per well. The assay plate was incubated for 48 h at 37° C., 95% humidity and 5% CO2. 15000 reporter cells (Jurkat PathHunter SIRPαV1, DiscoverX #93-1135C19) were added to each well, and the plate was incubated for 5 h at 37° C., 95% humidity and 5% CO2. Bioassay reagent 1 of the PathHunter Bioassay detection kit (DiscoverX 93-0001) was added to each well of the plate using a multichannel pipette followed by a 15 min incubation at room temperature. Afterwards bioassay reagent 2 was added followed by […] incubation at room temperature (incubation in the dark). The analysis of the data was performed using the luminescence signal generated by beta-galactosidase in the PathHunter reporter cell line. The luminescence measurement was done using a Pherastar Multi-Mode Reader. Dose-response curves & IC50 data were calculated with 4-parameter sigmoidal dose response formula.

QPCTL = molecular target: T1, QPCTL (Homo sapiens, UniProt Q9NXS2); test: Assay A: biochemical QPCTL activity assay (MALDI-TOF MS, CD47 peptide substrate); settings: 0.5 nM enzyme, 10 μM CD47 peptide substrate; read-out: Inhibition of QPCTL: IC50
T1 construct: made in house
Experimental: (§3) QPCT or QPCTL dependent conversion of N-terminal glutamine to pyroglutamate of CD47 was monitored via MALDI-TOF MS. Test compounds were dissolved in 100% DMSO and serially diluted into clear 1,536-well microtiter plates. […] The plates were incubated for 10 min in a humidified incubator at 24° C. Subsequently, 2.5 μL of CD47 peptide substrate surrogate (^19[…]^33) was added to each well (final concentration: 10 μM for QPCTL/20 μM for QPCT). […] The plates were sealed with an adhesive foil, mixed for 30 s at 1,000 rpm and stored at room temperature until preparation of the MALDI target plates. MALDI target plates were prepared as described previously. […] QPCT or QPCTL activity was monitored by calculating the ratio between product and internal standard signals followed by normalization to high (100% activity) and low (0% activity) controls. Determination of compound potencies was obtained by fitting the dose-response data to a four-parameter logistical equation.

[2] = Assay C: permeability in CACO-2 cells; assay type: in vitro ADME; settings: human, pH 7.2; for efflux ratio: Caco-2, Permeability B-A/Permeability A-B; for Papp A→B: Caco-2, apical to basolateral
Experimental: Caco-2 cells (1−2×10^5 cells/1 cm^2 area) are seeded on filter inserts (Costar transwell polycarbonate or PET filters, 0.4 µm pore size) and cultured (DMEM) for 10 to 25 days. Compounds are dissolved in appropriate solvent (like DMSO, 1-20 mM stock solutions). […] The transport solution (TL) is applied to the apical or basolateral donor side for measuring A-B or B-A permeability (3 filter replicates), respectively. Samples are collected at the start and end of experiment from the donor and at various time intervals for up to 2 hours also from the receiver side for concentration measurement by HPLC-MS/MS or scintillation counting. Sampled receiver volumes are replaced with fresh receiver solution. Efflux Ratio (ER)=Permeability B-A/Permeability A-B

QPCT = molecular target: T2, QPCT (Homo sapiens, UniProt Q16769); test: Assay A: biochemical QPCT activity assay (MALDI-TOF MS, CD47 peptide substrate); settings: 0.5 nM enzyme, 20 μM CD47 peptide substrate; read-out: Inhibition of QPCT: IC50
T2 construct: purchased Origine (OriGene) TP700028
Experimental: as §3

[3] = system: SIRPα signalling induced by A549 cells; test: Assay B: SIRPα signalling assay using A549 cells; assay type: cell-based; settings: Homo sapiens, 48 h compound incubation, Jurkat PathHunter SIRPαV1 reporter cells, read-out: Inhibition of SIRPα signalling induced by A549 cells: IC50
Experimental: as §1, §2

T2 sequence (Q16769 29-361): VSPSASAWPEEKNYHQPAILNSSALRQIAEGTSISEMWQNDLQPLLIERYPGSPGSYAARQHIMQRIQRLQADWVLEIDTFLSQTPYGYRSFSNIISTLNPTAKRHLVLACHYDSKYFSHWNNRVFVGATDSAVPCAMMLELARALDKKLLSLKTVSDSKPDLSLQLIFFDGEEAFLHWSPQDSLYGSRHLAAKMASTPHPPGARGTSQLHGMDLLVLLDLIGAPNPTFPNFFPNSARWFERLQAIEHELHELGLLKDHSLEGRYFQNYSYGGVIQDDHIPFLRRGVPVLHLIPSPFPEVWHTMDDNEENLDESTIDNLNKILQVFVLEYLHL
T1 sequence (Q9NXS2 whole entry): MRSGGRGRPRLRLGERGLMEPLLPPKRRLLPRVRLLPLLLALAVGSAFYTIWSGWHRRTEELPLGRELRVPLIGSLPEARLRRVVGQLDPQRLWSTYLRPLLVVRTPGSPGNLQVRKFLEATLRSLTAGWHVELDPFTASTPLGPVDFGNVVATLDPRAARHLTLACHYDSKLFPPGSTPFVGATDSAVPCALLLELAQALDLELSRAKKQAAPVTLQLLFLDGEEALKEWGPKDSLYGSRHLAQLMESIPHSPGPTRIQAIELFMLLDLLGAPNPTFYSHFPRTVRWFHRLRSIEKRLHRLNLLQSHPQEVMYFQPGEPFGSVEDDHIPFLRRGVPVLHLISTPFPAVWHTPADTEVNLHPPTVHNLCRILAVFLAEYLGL

SMILES | pIC50 [1] | pIC50 (QPCTL) | efflux ratio [2] | Papp A→B [2] | pIC50 (QPCT) | pIC50 [3]
Cn1cnnc1C1(F)CCN(c2c(C#N)ccnc2-c2cncc(-c3ncco3)c2)CC1 [Example 11] | 5.93 | 7.89 | 5 | 13 ×10⁻⁶ cm/s | 7.32 | 6.38
Cn1cnnc1C1(F)CCN(c2c(C#N)ccnc2-c2cnn3nc(-c4cccnc4Cl)ccc23)CC1 [Example 17] | 6.56 | 8.30 |  |  | 8.30 | 7.15
COCCOc1ncc(-c2nccc(C#N)c2N2CCC(F)(c3nncn3C)CC2)cn1 [Example 10] | 6.27 | 8.10 | 13.1 | 1.6 ×10⁻⁶ cm/s | 7.52 | 6.55
Cn1cnnc1C1(F)CCN(c2c(C#N)cc(C3CC3(F)F)nc2-c2cnc3nn(C(C)(C)C)cc3c2)CC1 (stereo not shown) [Example 4] | 7.82 |  |  | 8.8 ×10⁻⁶ cm/s |  | 7.77
Cn1cc(-c2ccc3c(-c4nccc(C#N)c4N4CCC(F)(c5nncn5C)CC4)cnn3n2)cn1 [Example 25] | 6.82 | 9.00 | 7.7 | 5.3 ×10⁻⁶ cm/s | 8.22 | 7.11
Cn1cnnc1C1(F)CCN(c2c(C#N)ccnc2-c2cnc3nc(-c4cccc(Cl)c4)ccn23)CC1 [Example 33] | 7.28 | 9.00 | 6.2 | 13 ×10⁻⁶ cm/s | 8.70 | 7.52
Cn1cnnc1C1(F)CCN(c2c(C#N)ccnc2-c2cnn3nc(-c4c(F)cccc4F)ccc23)CC1 [Example 21] | 7.80 | 8.70 |  |  | 9.00 | 7.96
Cn1cnnc1C1(F)CCN(c2c(C#N)ccnc2-c2cnn3nc(-c4ccccc4Cl)ccc23)CC1 [Example 29] | 7.19 | 8.70 | 1.7 | 39 ×10⁻⁶ cm/s | 9.00 | 7.57
Cn1cnnc1C1(F)CCN(c2c(C#N)ccnc2-c2cnn3nc(-c4ccc(Cl)cc4)ccc23)CC1 [Example 27] | 6.97 | 8.40 | 2.2 | 16 ×10⁻⁶ cm/s | 8.52 | 7.28
Cn1cnnc1C1(F)CCN(c2c(C#N)ccnc2-c2cnn3nc(-c4cc(Cl)ccc4C#N)ccc23)CC1 [Example 18] | 7.36 | 8.70 |  |  | 9.00 | 7.80
CC(C)c1ccccc1-c1ccc2c(-c3nccc(C#N)c3N3CCC(F)(c4nncn4C)CC3)cnn2n1 [Example 30] | 7.06 | 8.70 | 0.7 | 46 ×10⁻⁶ cm/s | 9.00 | 7.77
Cc1ccccc1-c1ccc2c(-c3nccc(C#N)c3N3CCC(F)(c4nncn4C)CC3)cnn2n1 [Example 19] | 7.70 |  |  |  |  | 8.22
Cn1cnnc1C1(F)CCN(c2c(C#N)cc(C(F)(F)F)nc2-c2cnc3occc3c2)CC1 [Example 15] | 6.53 | 7.82 | 1.6 | 47 ×10⁻⁶ cm/s | 7.24 | 6.39
Cn1cnnc1C1(F)CCN(c2c(C#N)ccnc2-c2cnn3nc(-c4ccc(Cl)cc4Cl)ccc23)CC1 [Example 20] | 7.08 | 8.70 |  |  | 8.52 | 7.54
Cn1cnnc1C1(F)CCN(c2c(C#N)cc(C(C)(C)O)nc2-c2ccc(F)nc2)CC1 [Example 1] | 7.11 | 8.70 | 6.3 | 8.7 ×10⁻⁶ cm/s | 8.52 | 7.39
Cn1cnnc1C1(F)CCN(c2c(C#N)ccnc2-c2cnc(F)c(N)c2)CC1 [Example 9] | 6.99 | 8.70 | 4.5 | 5.8 ×10⁻⁶ cm/s | 8.40 | 7.41

SMILES | pIC50 [1] | pIC50 (QPCTL) | efflux ratio [2] | Papp A→B [2] | pIC50 (QPCT) | pIC50 [3]
Cn1cnnc1C1(F)CCN(c2c(C#N)ccnc2-c2cnc3nnn(Cc4ccc(C(F)(F)F)nc4)c3c2)CC1 [Example 14] | 6.17 | 8.52 | 32.8 | 0.7 ×10⁻⁶ cm/s | 7.96 | 6.69
Cn1cnnc1C1(F)CCN(c2c(C#N)ccnc2-c2cnn3nc(-c4cscc4C#N)ccc23)CC1 [Example 26] | 6.83 | 8.52 | 11.5 | 7.2 ×10⁻⁶ cm/s | 8.70 | 7.00
Cn1cnnc1C1(F)CCN(c2c(C#N)ccnc2-c2cnn3nc(-c4cccc(Cl)c4)ccc23)CC1 [Example 28] | 7.15 |  |  | 28 ×10⁻⁶ cm/s |  | 7.28
Cn1cnnc1C1(F)CCN(c2c(C#N)cc(C(C)(C)O)nc2-c2cnc3nn(C(C)(C)C)c(Cl)c3c2)CC1 [Example 2] | 7.70 |  |  | 4.5 ×10⁻⁶ cm/s |  | 7.40
Cn1cnnc1C1(F)CCN(c2c(C#N)ccnc2-c2cnn3nc(-c4ccccc4F)ccc23)CC1 [Example 31] | 7.27 | 8.52 | 1.2 | 54 ×10⁻⁶ cm/s | 8.52 | 7.51
Cn1cnnc1C1(F)CCN(c2c(C#N)ccnc2-c2cnn3nc(-c4ccccc4C#N)ccc23)CC1 [Example 22] | 6.93 | 8.70 |  |  | 8.70 | 7.29
COc1ccc(-c2ccc3c(-c4nccc(C#N)c4N4CCC(F)(c5nncn5C)CC4)cnn3n2)c(F)c1 [Example 23] | 6.80 | 8.40 |  |  | 8.40 | 7.34
COc1cnc(-c2ccc(F)nc2)c(N2CCC(F)(c3nncn3C)CC2)c1C#N [Example 7] | 6.25 | 8.10 | 5.5 | 15 ×10⁻⁶ cm/s | 7.92 | 6.70
Cn1cnnc1C1(F)CCN(c2c(C#N)cc(C3CC3(F)F)nc2-c2ccc(F)nc2)CC1 (stereo not shown) [Example 3] | 6.88 | 9.00 | 1.3 | 47 ×10⁻⁶ cm/s | 8.40 | 7.40
Cn1cnnc1C1(F)CCN(c2c(C#N)ccnc2-c2cnc3nn(Cc4ccc(C(F)(F)F)nc4)nc3c2)CC1 [Example 13] | 6.22 | 8.10 | 9 | 6.2 ×10⁻⁶ cm/s | 7.62 | 6.45
COc1cc(C#N)c(N2CCC(F)(c3nncn3C)CC2)c(-c2ccc(F)nc2)n1 [Example 5] | 6.21 | 8.40 | 1.6 | 27 ×10⁻⁶ cm/s | 8.05 | 7.22
Cn1cnnc1C1(F)CCN(c2c(C#N)cc(C(F)(F)F)nc2-c2cnc3nc(C(C)(C)C)oc3c2)CC1 [Example 16] | 7.57 |  |  | 33 ×10⁻⁶ cm/s |  | 7.49
Cc1noc(C)c1-c1ccc2c(-c3nccc(C#N)c3N3CCC(F)(c4nncn4C)CC3)cnn2n1 [Example 24] | 6.01 | 7.85 | 4.6 | 16 ×10⁻⁶ cm/s | 8.10 | 6.74
Cc1ccc(-c2ccc3c(-c4nccc(C#N)c4N4CCC(F)(c5nncn5C)CC4)cnn3n2)c(C)c1 [Example 32] | 7.14 |  |  | 60 ×10⁻⁶ cm/s |  | 7.68
Cn1cnnc1C1CCN(c2ncccc2-c2ccc(F)nc2)CC1 [SEN177, reference compound] | 5.86 |  |  |  |  | 6.67
